Here are results for 7 compounds from patent publication US20250032477A1, “COMPOUNDS, PHARMACEUTICAL COMPOSITIONS, AND METHODS FOR THE TREATMENT, PREVENTION, OR MANAGEMENT OF HYPERPROLIFERATIVE DISORDERS” (VINCERX PHARMA GMBH, priority 2021, published 2025).

Read-outs that look alike come from different tables or passages of the source.

For data set [1], the system named is Caco-2 cells. In words: Caco-2 flux assay for cellular permeability. As to conditions: Caco-2 cells; for Caco-2 Flux Papp A-B: apical to basal, 2 hours, HEPES buffer; for Caco-2 Flux Efflux ratio: ratio of Papp (B-A) to Papp (A-B), actively transported when >2 or <0.5. On the procedure: (§1) Caco-2: The cell permeability of a substance can be investigated by means of in vitro testing in a flux assay using Caco-2 cells [M. D. Troutman and D. R. Thakker, Pharm. Res. 20 (8), 1210-1224 (2003)]. For this purpose, the cells were cultured for 15-16 days on 24-well filter plates. For the determination of permeation, the respective test substance was applied in a HEPES buffer to the cells either apically (A) or basally (B) and incubated for 2 hours. After 0 hours and after 2 hours, samples were taken from the cis and trans compartments. The samples were separated by HPLC (Agilent 1200, Böblingen, Germany) using reverse phase columns. The HPLC system was coupled via a Turbo Ion Spray Interface to a Triple Quadropol mass spectrometer API 4000 (AB SCIEX Deutschland GmbH, Darmstadt, Germany). The permeability was evaluated on the basis of a Papp value, which was calculated using the formula published by Schwab et al. [D. Schwab et al., J. Med. Chem. 46, 1716-1725 (2003)]. A substance was classified as actively transported when the ratio of Papp (B-A) to Papp (A-B) (efflux ratio) was >2 or <0.5. Compounds with an efflux ratio of 0.5-2 are considered not actively transported. In Table 5, reference compounds are provided for comparison. Ref 1 is exatecan mesylate, Ref 2 is DXd, and Ref 3 is 10,11-methylenedioxy-camptothecin (FL118).
On the technique in general: Caco-2 monolayers are a common model of the intestinal barrier.

The subject of data set [2] is HT29. Briefly: Cytotoxicity in vitro in the presence and absence of legumain. The format is cell-based. As to conditions: Homo sapiens.
Data set [3] deals with NCI H292. The description is as above. The format is cell-based. The following applies: Homo sapiens.
Data set [4] has as its system SUM149. The data set is described as above. Format: cell-based.
Data set [5] concerns SUM149. Briefly: Cytotoxicity in vitro in the presence and absence of elastase (MTT). Format: cell-based. The following applies: SUM149 cells, 72 h, MTT. On the procedure: (§2) Cultivation of cells was performed according to standard procedures with the media recommended by the provider. The cells, in a total volume of 100 μL, were seeded in a 96-well plate with a white bottom (#3610). After a 24 h incubation period at 37° C. and […], the medium was exchanged by adding 90 μL fresh medium. The treatment started by adding the test compound in 10 μL of culture medium to the cells in triplicates. Concentrations ranging from 10^−5 M to 10^−13 M were chosen. Two identically treated sets of samples were prepared. One set was treated with the test compound alone, whereas to the second set the compound and 10 nM elastase was added followed by a 72 h incubation period at 37° C. and 5% CO2. The proliferation was detected using the MTT assay (ATCC). At the end of the incubation period the MTT reagent was added to all samples for 4 h. Lysis of the cells followed by addition of the detergent was done overnight. The formed dye was detected at 570 nm. The proliferation of untreated but otherwise identically handled cells was define as the […].

Data set [6] is described as follows: in vitro. The following applies: human, Caco-2. The method, then:
as §1

Data set [7] relates to HT29. In words: Cytotoxicity in vitro in the presence and absence of elastase (MTT). The format is cell-based, human. As to conditions: Homo sapiens, HT-29, HT29 cells, 72 h, MTT. On the procedure:
as §2

The test system of data set [8] is NCI H292. Described as above. The format is cell-based, human. The following applies: Homo sapiens, NCI H292 cells, 72 h, MTT. On the procedure: as §2
For data set [9], the system named is 786-O. The description is as above. Format: cell-based, human. The following applies: Homo sapiens, 786-0, 786-O cells, 72 h, MTT. The method, then: as §2
The test system of data set [10] is HT29. In words: Cytotoxicity assay (Version 2), automated, AC50, with or without elastase. The format is cell-based, human. The following applies: Homo sapiens, HT-29, HT29 cells, Version 2, activity concentration at −50%. In outline: (§3)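 Cells treated 72 h at 37 °C with compound (10^−5 to 10^−13 M) alone or with 10 nM elastase, in triplicate, automated. MTT viability read at 570 nm, normalised to cell-free medium (−100%) and DMSO cells (0%); AC50 at −50% from 4-parameter Hill fit.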

Data set [11] deals with NCI H292. The description is as above. The format is cell-based, human. As to conditions: Homo sapiens, NCI H292 cells, Version 2, activity concentration at −50%. In outline:
as §3

The subject of data set [12] is 786-O. The data set is described as above. The format is cell-based, human. As to conditions: Homo sapiens, 786-0, 786-O cells, Version 2, activity concentration at −50%. The essentials: as §3
The subject of data set [13] is SUM149. The description is as above. As to conditions: SUM149 cells, Version 2, activity concentration at −50%. Format: cell-based. In outline:
as §3

The mark [14] stands for this setting: with 10 nM elastase, read-out: SUM149 IC50 w elastase.
Setting [15] is: without elastase, read-out: SUM149 IC50 w/o.
Setting [16] is: with 10 nM elastase, read-out: HT29 IC50 w elastase.
The mark [17] stands for this setting: without elastase, read-out: HT29 IC50 w/o.
[18] abbreviates: with 10 nM elastase, read-out: NCI H292 IC 50 w elastase.
[19] abbreviates: without elastase, read-out: NCI H292 IC 50 w/o.
Where [20] appears, read: with 10 nM elastase, read-out: 786-O IC50 w elastase.
The mark [21] stands for this setting: without elastase, read-out: 786-O IC50 w/o.

Regarding `CC[C@@]1(O)C(=O)OCc2c1cc1n(c2=O)Cc2cc3cc4c(cc3nc2-1)OCO4` [Ref 3, 10,11-methylenedioxy-camptothecin, reference compound], in data set [1], the “Caco-2 Flux Papp A-B” value was “CC (CC: 100-999)” and the “Caco-2 Flux Efflux ratio” value is on record as “B (B: not actively transported)”.
The corresponding values for “exatecan mesylate [Ref 1, reference compound]” are “CC (CC: 100-999)” and “B (B: not actively transported)”.
For the compound `CC[C@@]1(O)C(=O)OCc2c1cc1n(c2=O)Cc2c-1nc1cc(F)c(C)c3c1c2[C@@H](NC(=O)[C@H](CC(N)=O)NC(=O)Cc1ccncc1)CC3` [Compound 10, N^1-[(1S,9S)-9-ethyl-5-fluoro-9-hydroxy-4-methyl-10,13-dioxo-2,3,9,10,13,15-hexahydro-1H,12H-benzo[de]pyrano[3′,4′:6,7]indolizino[1,2-b]quinolin-1-yl]-N^2-[(pyridin-4-yl)acetyl]-L-aspartamide], the IC50 was over 100 nM in [2] (HT-29, read-out: HT29 IC50 w legumain); over 100 nM in [2] (HT-29, read-out: HT29 IC50 w/o); over 100 nM in data set [3] (NCI-H292, read-out: NCI H292 IC50 w legumain); over 100 nM in data set [3] (NCI-H292, read-out: NCI H292 IC50 w/o); over 100 nM in data set [4] (SUM149, read-out: SUM149 IC50 w legumain); over 100 nM in data set [4] (SUM149, read-out: SUM149 IC50 w/o).
Broadly, the Papp A→B is how fast a substance crosses the layer from the apical side. Lower therefore signals slow passage. The term efflux ratio denotes a quotient of directional permeabilities that is used to spot active efflux. On to `CC[C@@]1(O)C(=O)OCc2c1cc1n(c2=O)Cc2c-1nc1cc(F)c(C)c3c1c2[C@@H](NC(=O)C(F)(F)F)CC3` [Compound 8, N-[(1S,9S)-9-ethyl-5-fluoro-9-hydroxy-4-methyl-10,13-dioxo-2,3,9,10,13,15-hexahydro-1H,12H-benzo[de]pyrano[3′,4′:6,7]indolizino[1,2-b]quinolin-1-yl]-2,2,2-trifluoroacetamide], for which the IC50 is under 0.01 nM in data set [5] (setting [14]); under 0.01 nM in [5] (setting [15]); 0.01 to 0.1 nM in data set [7] (setting [16]); 0.01 to 0.1 nM in data set [7] (setting [17]); 0.01 to 0.1 nM in data set [8] (setting [18]); 0.01 to 0.1 nM in [8] (setting [19]). The IC50 in data set [9] (setting [20]) and in [9] (setting [21]) was 0.01 to 0.1 nM throughout. The compound further had a Papp A→B at 2 h in data set [6] of 1 to 9.9 ×10⁻⁶ cm/s. Moreover, the efflux ratio at 2 h in [6] is over 2.
Take `CC[C@@]1(O)C(=O)OCc2c1cc1n(c2=O)Cc2c-1nc1cc(F)c(C)c3c1c2[C@@H](NC(=O)[C@H](CC(N)=O)NC(=O)[C@H](C)N(C)C(=O)[C@H](C)NC(=O)Cc1ccncc1)CC3` [Compound 11, N-[(pyridin-4-yl)acetyl]-L-alanyl-N-methyl-L-alanyl-N^1-[(1S,9S)-9-ethyl-5-fluoro-9-hydroxy-4-methyl-10,13-dioxo-2,3,9,10,13,15-hexahydro-1H, 12H-benzo[de]pyrano [3′,4′:6,7]indolizino [1,2-b]quinolin-1-yl]-L-aspartamide]: the IC50 was over 100 nM in data set [2] (HT-29, HT29 cells, with legumain, read-out: HT29 IC50 w legumain); over 100 nM in data set [2] (HT-29, HT29 cells, without legumain, read-out: HT29 IC50 w/o); 11 to 100 nM in data set [3] (NCI H292 cells, with legumain, read-out: NCI H292 IC50 w legumain); 11 to 100 nM in [3] (NCI H292 cells, without legumain, read-out: NCI H292 IC50 w/o); 1.1 to 10 nM in data set [4] (SUM149 cells, with legumain, read-out: SUM149 IC50 w legumain); 1.1 to 10 nM in [4] (SUM149 cells, without legumain, read-out: SUM149 IC50 w/o).
With `CC[C@@]1(O)C(=O)OCc2c1cc1n(c2=O)Cc2c-1nc1cc(F)c(C)c3c1c2[C@@H](NC(=O)CO)CC3` [Ref 2, DXd, reference compound], in data set [1], the “Caco-2 Flux Papp A-B” value is “AA (AA: 1-9)” and the “Caco-2 Flux Efflux ratio” value is “A (A: actively transported)”.
By AC50 is commonly meant the concentration at which the activity in the assay is half-maximal. Consider `CCN(CC)[C@H]1CCc2c(C)c(F)cc3nc4c(c1c23)Cn1c-4cc2c(c1=O)COC(=O)[C@]2(O)CC` [Compound 17, (1S,9S)-1-(diethylamino)-9-ethyl-5-fluoro-9-hydroxy-4-methyl-1,2,3,9,12,15-hexahydro-10H,13H-benzo[de]pyrano[3′,4′:6,7]indolizino[1,2-b]quinoline-10,13-dione], for which the IC50 in [5] (setting [14]) is 0.1 to 1 nM; in data set [5] (setting [15]) it was 0.1 to 1 nM; in data set [7] (setting [16]) it was 1.1 to 10 nM; in data set [7] (setting [17]), 1.1 to 10 nM; in data set [8] (setting [18]), 1.1 to 10 nM; in data set [8] (setting [19]), 1.1 to 10 nM. For the same compound, the IC50 in [9] (setting [20]) and in [9] (setting [21]) was 1.1 to 10 nM throughout. Moreover, the Papp A→B at 2 h in [6] lay in the range of 10 to 99.9 ×10⁻⁶ cm/s. For the same compound, the efflux ratio at 2 h in data set [6] was 0.5 to 2. In addition, the AC50 in [10] (with elastase, read-out: HT29 AC50 +elastase) was in the range of 11 to 100 nM; in data set [10] (without elastase, read-out: HT29 AC50 −elastase) it was 11 to 100 nM; in data set [11] (with elastase, read-out: NCI H292 AC50 +elastase), 1.1 to 10 nM; in data set [11] (without elastase, read-out: NCI H292 AC50 −elastase), 1.1 to 10 nM; in data set [12] (with elastase, read-out: 786-O AC50 +elastase), 1.1 to 10 nM; in [12] (without elastase, read-out: 786-O AC50 −elastase), 1.1 to 10 nM. In addition, the AC50 in data set [13] (with elastase, read-out: SUM149 AC50 +elastase) is 1.1 to 10 nM; in data set [13] (without elastase, read-out: SUM149 AC50 −elastase), 1.1 to 10 nM.
